The numbers were not newly measured in the PKSmart pharmacokinetics tables (Seal et al. 2025), which cites them from elsewhere.

For orientation: Vd means the apparent volume that relates the amount in the body to the concentration in plasma or blood. In general, clearance refers to the volume of plasma or blood freed of the substance per unit of time. A word on the half-life: it is the time needed for the level to fall by half in the phase considered. Broadly, the fraction unbound is free concentration divided by total concentration.

This series is described as follows: not given per row; by the article one of three: Lombardo et al. 2013, J Clin Pharmacol 53:178, doi 10.1177/0091270012440282; 'New Drugs at FDA', novel drug approvals for 2021 and 2022 (the article's reference 43); Yap, Li, Chen 2006, J Mol Graph Model 24:383, doi 10.1016. Conditions: human; for Vd / clearance / half-life: in vivo; for fraction unbound: plasma.

The structures appear in SMILES notation.

With `C=CC(=O)N1CC[C@H](n2nc(C#Cc3cc(OC)cc(OC)c3)c3c(N)ncnc32)C1`, the Vd is 1.1 L/kg, the clearance was 5.56 mL/min/kg, the half-life is 2.9 h and the fraction unbound was 0.05.
With `NC(=O)c1cc[n+](COC[n+]2ccccc2C=NO)cc1`, the clearance is 3.2 mL/min/kg.
On to `O=C(c1ccc(NS(=O)(=O)c2cccc3cccnc23)cc1)N1CCN(CC2CC2)CC1`, for which the Vd is 0.71 L/kg, the clearance is 3.47 mL/min/kg, the half-life was 4 h and the fraction unbound is 0.02.
Take `NC[C@H]1O[C@@H](O[C@H]2C(O)[C@@H](O[C@H]3O[C@@H](CO)[C@H](O)[C@@H](N)[C@@H]3O)[C@H](N)C[C@@H]2N)[C@H](N)C[C@@H]1O` (some centres undefined): the clearance was 1.35 mL/min/kg.
Regarding `CC(C)[N+](C)(CCOC(=O)C1c2ccccc2Oc2ccccc21)C(C)C`, the clearance is 18.9 mL/min/kg.
On to `C[C@]12C=CC(=O)C=C1CC[C@H]1[C@@H]3C[C@@H](O)[C@](O)(C(=O)CO)[C@@]3(C)C[C@@H](O)[C@@]12F`, for which the clearance is 13.1 mL/min/kg.
For the compound `Cc1ccc(C(=O)c2ccc(CC(=O)O)n2C)cc1`, the clearance was 1.3 mL/min/kg.
As to `Cc1ccc(C)c(OCCCC(C)(C)C(=O)O)c1`, the clearance is 1.7 mL/min/kg.
For `O=C(O)CCC(NC(=O)NC(CCCCNC(=O)c1ccc([18F])nc1)C(=O)O)C(=O)O` (centres undefined), the half-life was 3.47 h.
In the case of `C[C@H](NCCc1ccc(O)cc1)[C@H](O)c1ccc(O)cc1`, the clearance was 8.67 mL/min/kg.
Take `CC1=C(/C=C/C(C)=C/C=C/C(C)=C/C(=O)Nc2ccc(O)cc2)C(C)(C)CCC1`: the clearance was 23.5 mL/min/kg.
In the case of `CN(C)CCOc1ccc(/C(=C(\CCCl)c2ccccc2)c2ccccc2)cc1`, the clearance was 1.21 mL/min/kg.
For `CC(NC(C)(C)C)C(=O)c1cccc(Cl)c1` (centres undefined), the clearance was 36 mL/min/kg.
Take `CNCC[C@H](Oc1ccc(C(F)(F)F)cc1)c1ccccc1`: the clearance is 9.6 mL/min/kg.
Turning to `CC(=O)OCC1=C(C(=O)O)N2C(=O)C(NC(=O)CSc3ccncc3)[C@@H]2SC1` (some centres undefined), the clearance is 6.36 mL/min/kg.
As to `O=C(O)c1cc(O)c2c(c1)C(=O)c1cccc(O)c1C2=O`, the clearance is 0.38 mL/min/kg.
With `Nc1nc2c(ncn2CCC(CO)CO)c(=O)[nH]1`, the clearance was 9.36 mL/min/kg.
Regarding `O=C(O)CCC(NC(=O)NC(CCCCNC(=O)C(Cc1ccc2ccccc2c1)NC(=O)C1CCC(CNC(=O)CN2CCN(CC(=O)O)CCN(CC(=O)O)CCN(CC(=O)O)CC2)CC1)C(=O)O)C(=O)O` (centres undefined), the Vd is 2.05 L/kg, the clearance was 0.567 mL/min/kg, the half-life was 41.6 h and the fraction unbound is 0.35.
As for `Cc1ccc(NC(=O)C2CCCN(C(=O)c3c(C)cccc3F)[C@H]2c2ccc(NC3CCCC3)cc2)cc1C(F)(F)F` (some centres undefined), the Vd was 5.75 L/kg, the clearance was 4.53 mL/min/kg, the half-life is 97.6 h and the fraction unbound was 0.01.
In the case of `CC(=O)NC(CCS)C(=O)O` (centres undefined), the clearance is 2.06 mL/min/kg.
With `COc1cc2c(cc1OC)C(=O)C(CC1CCN(Cc3ccccc3)CC1)C2` (centres undefined), the clearance is 2.53 mL/min/kg.
Turning to `Nc1nc(F)nc2c1ncn2[C@@H]1O[C@@H](COP(=O)(O)O)[C@@H](O)[C@@H]1O`, the clearance was 3.7 mL/min/kg.
As for `NC(=O)c1cc[n+](CC2=C(C(=O)O)N3C(=O)C(NC(=O)C(c4ccccc4)S(=O)(=O)[O-])[C@@H]3SC2)cc1` (some centres undefined), the clearance was 1.92 mL/min/kg.
On to `NS(=O)(=O)c1cc2c(cc1Cl)N=CNS2(=O)=O`, for which the clearance was 4.5 mL/min/kg.
Regarding `C[C@@H]1[C@H](c2c(F)ccc(F)c2F)CC(NC(=O)c2cnc3c(c2)C[C@@]2(C3)C(=O)Nc3ncccc32)C(=O)N1CC(F)(F)F` (some centres undefined), the Vd is 4.87 L/kg, the clearance is 5.28 mL/min/kg, the half-life was 11 h and the fraction unbound is 0.05.
For `C=CC(=O)N1CCN(c2nc(=O)n(-c3c(C)ccnc3C(C)C)c3nc(-c4c(O)cccc4F)c(F)cc23)[C@@H](C)C1`, the Vd is 3.52 L/kg, the clearance was 7.28 mL/min/kg and the fraction unbound was 0.11.
`C[C@]1(Cn2ccnn2)C(C(=O)O)N2C(=O)C[C@@H]2S1(=O)=O` (some centres undefined): the clearance is 2.91 mL/min/kg.
In the case of `COc1ccc2c3c1O[C@@H]1[C@@H](O)C=C[C@@H]4[C@H](C2)N(C)CC[C@]341`, the clearance is 11 mL/min/kg.
As for `CON=C(C(=O)NC1C(=O)N2C(C(=O)[O-])=C(C[N+]34CCC(C(N)=O)(CC3)CC4)CS[C@H]12)c1nsc(N)n1` (some centres undefined), the clearance is 2.15 mL/min/kg.
As for `CC1(C)S[C@H]2C(NC(=O)C(NC(=O)N3CCNC3=O)c3ccccc3)C(=O)N2C1C(=O)O` (some centres undefined), the clearance was 2.52 mL/min/kg.
As to `CC[C@]1(C)CC(=O)NC1=O`, the clearance was 0.19 mL/min/kg.
As to `NS(=O)(=O)c1cc(-c2nn[nH]n2)c(NCc2cccs2)cc1Cl`, the clearance is 1.29 mL/min/kg.
On to `CC(C)(Oc1ccc(CCNC(=O)c2ccc(Cl)cc2)cc1)C(=O)O`, for which the clearance was 1.67 mL/min/kg.
For the compound `Oc1ccc(CCNCCCCCCNCCc2ccccc2)cc1O`, the clearance was 36 mL/min/kg.
Regarding `CON=C(C(=O)NC1C(=O)N2C(C(=O)O)=C(C)CS[C@@H]12)c1csc(N)n1` (some centres undefined), the clearance is 2 mL/min/kg.
As for `O=C(O)C1=C(CSc2nnnn2CS(=O)(=O)O)CS[C@H]2C(NC(=O)C(O)c3ccccc3)C(=O)N12` (some centres undefined), the clearance is 0.33 mL/min/kg.
As for `Fc1ccc([C@H]2CCNC[C@@H]2COc2ccc3c(c2)OCO3)cc1`, the clearance was 6.8 mL/min/kg.
Consider `C=CCN1CCc2nc(N)sc2CC1`, for which the clearance was 7.38 mL/min/kg.
For the compound `O=C1CC2(CCCC2)CC(=O)N1CCCCN1CCN(c2ncccn2)CC1`, the clearance is 28.3 mL/min/kg.
As to `O=C(OCCN1CCCCCC1)C(c1ccsc1)C1CCCCC1` (centres undefined), the clearance is 18.3 mL/min/kg.
For `CCOC(=O)Nc1c[n+](N2CCOCC2)no1`, the clearance was 9.52 mL/min/kg.
Regarding `CN1c2ccccc2[C@H](NCCCCCCC(=O)O)c2ccc(Cl)cc2S1(=O)=O`, the clearance was 3.43 mL/min/kg.
On to `C[C@@H]1c2cccc(O)c2C(=O)C2=C(O)[C@]3(O)C(=O)C(C(N)=O)=C(O)[C@H](N(C)C)[C@H]3[C@H](O)[C@H]21`, for which the clearance is 0.52 mL/min/kg.
As to `CCCC(NC(C)C(=O)N1C(C(=O)O)C[C@@H]2CCCC[C@H]21)C(=O)OCC` (some centres undefined), the clearance is 6.19 mL/min/kg.
Take `C[C@H](CCc1ccccc1)NC[C@@H](O)c1ccc(O)c(C(N)=O)c1`: the clearance is 28.1 mL/min/kg.
In the case of `CC(C)NC[C@@H](O)c1ccc(NS(C)(=O)=O)cc1`, the clearance is 2.14 mL/min/kg.
On to `CN[C@H]1CC[C@H](c2ccc(Cl)c(Cl)c2)c2ccccc21`, for which the clearance was 38 mL/min/kg.
Regarding `CN1CCN2c3ncccc3Cc3ccccc3[C@@H]2C1`, the clearance is 8.25 mL/min/kg.
In the case of `CCCCC1(CCCC)CN(c2ccccc2)c2cc(SC)c(OCC(=O)NC(C(=O)NC(CC)C(=O)O)c3ccc(O)cc3)cc2S(=O)(=O)N1` (centres undefined), the half-life is 2.36 h and the fraction unbound is 0.01.
Take `NC(Cc1cc(I)c(Oc2ccc(O)c(I)c2)c(I)c1)C(=O)O` (centres undefined): the clearance is 0.25 mL/min/kg.
For `CCN(CC)c1cc(C)n2ncnc2n1`, the clearance is 3.79 mL/min/kg.
As for `COc1ccc2c(c1)N[C@@H]([S@@+](O)Cc1ncc(C)c(OC)c1C)N2`, the clearance is 3.81 mL/min/kg.
Regarding `COCc1c(-c2ccc(F)cc2)c(=CC[C@H](O)C[C@H](O)CC(=O)O)c(C(C)C)nc1=C(C)C`, the clearance was 2.98 mL/min/kg.
Take `O=C(O)CCCCCCNC1c2ccccc2CCc2ccccc21`: the clearance is 29.6 mL/min/kg.
Turning to `C[C@H]1CO[C@@H]2Cn3cc(C(=O)NCc4ccc(F)cc4F)c(=O)c(O)c3C(=O)N12`, the free fraction (fraction unbound) is 0.48.
For the compound `COc1c(N2CCN[C@@H](C)C2)c(F)cc2c(=O)c(C(=O)O)cn(C3CC3)c12`, the clearance was 2.85 mL/min/kg.
For `C[C@]12CC[C@@H]3c4ccc(O)cc4CC[C@H]3[C@@H]1[C@@H](O)[C@@H](O)[C@@H]2O`, the half-life is 27 h and the fraction unbound was 0.52.
For `CC(C)CC(NC(=O)C(Cc1ccccc1)NC(=O)C(N)Cc1ccccc1)C(=O)NC(CCCCN)C(=O)N1CCC(N)(C(=O)O)CC1` (centres undefined), the clearance is 3.97 mL/min/kg and the unbound share (fraction unbound) is 0.75.
Turning to `COC(=O)C(c1ccccc1)[C@@H]1CCCCN1` (some centres undefined), the clearance was 9.44 mL/min/kg.
